Here are results for 7 compounds from patent US5599811A, “Benzothiazine dioxides as endothelin antagonists” (Warner-Lambert Company, priority 1995, dated 1997).

Like-named read-outs stand apart in the source and are kept apart here. Where a SMILES comes first, the peptide text is derived from it. [ ]: non-standard residue; d: D form.

In assay [1] the test system is ischemia-induced acute renal failure. The note with it: anesthetized dogs (title of citation); cited from earlier work.
For assay [2], the target named is T1, ETA (Oryctolagus cuniculus, UniProt A5A8K3).
T1 construct: cultured rabbit renal artery vascular smooth muscle cells; endogenous in cells; host or cells: cultured rabbit renal artery vascular smooth muscle cells
T1 sequence (A5A8K3 21-427): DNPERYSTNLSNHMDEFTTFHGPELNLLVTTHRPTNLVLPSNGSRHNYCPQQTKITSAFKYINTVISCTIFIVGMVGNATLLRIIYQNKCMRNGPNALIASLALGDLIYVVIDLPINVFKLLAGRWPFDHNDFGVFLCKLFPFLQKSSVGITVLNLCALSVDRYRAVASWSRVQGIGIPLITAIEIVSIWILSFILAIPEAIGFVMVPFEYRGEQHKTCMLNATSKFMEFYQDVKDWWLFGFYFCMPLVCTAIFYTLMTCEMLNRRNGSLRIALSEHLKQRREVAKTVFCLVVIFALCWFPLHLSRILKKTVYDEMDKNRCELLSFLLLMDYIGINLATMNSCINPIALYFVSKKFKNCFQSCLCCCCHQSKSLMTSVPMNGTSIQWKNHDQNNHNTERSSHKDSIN
The assay can be described thus: AAR: inhibition of ET-1 stimulated arachidonic acid release in cultured rabbit renal artery vascular smooth muscle cells. The note with it: 0.3 nM ET-1, 30 minutes. The class given is cell-based. The text has this: (§1) The compounds of Formula I are valuable antagonists of endothelin.

For a further assay, the target named is T2, recombinant human ETA R (Homo sapiens, UniProt P25101).
T2 construct: expressed in transfected cells; host or cells: Ltk- cells
T2 sequence (P25101 21-427): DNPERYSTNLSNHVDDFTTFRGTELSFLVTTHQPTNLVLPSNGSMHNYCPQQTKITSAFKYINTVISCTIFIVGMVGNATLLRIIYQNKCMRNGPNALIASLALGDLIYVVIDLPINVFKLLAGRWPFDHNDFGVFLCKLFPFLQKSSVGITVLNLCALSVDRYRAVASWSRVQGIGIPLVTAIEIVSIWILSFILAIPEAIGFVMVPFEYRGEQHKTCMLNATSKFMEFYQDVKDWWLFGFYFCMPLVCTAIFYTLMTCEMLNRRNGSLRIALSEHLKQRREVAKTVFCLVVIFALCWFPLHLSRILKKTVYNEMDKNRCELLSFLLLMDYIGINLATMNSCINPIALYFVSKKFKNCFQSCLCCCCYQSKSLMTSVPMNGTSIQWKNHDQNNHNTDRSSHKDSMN
Format: binding. The note with it: [125I]-ET-1 40 pM, 2 hours at 37° C.; read-out: HERBAA IC50. How it is done: as §1
(§2) The following cultured cells were used in binding experiments: rabbit renal artery vascular smooth muscle cells (ERBA-A), Ltk-cells expressing recombinant human ETA R (HERBA-A), and CHO-K1 cells expressing recombinant human ETB R (HERBA-B).
(§3) Membranes were prepared from cultured cells by lysing cells in cold lysis buffer (5 mM HEPES, 2 mM EDTA, pH 7.4) and homogenizing with a Dounce "A" homogenizer. The homogenate was centrifuged at 30,000× g for 20 minutes at 4° C. Membrane pellets were suspended in cold buffer containing 20 mM Tris, 2 mM EDTA, 200 μM Pefabloc, 10 μM phosphoramidon, 10 μM leupeptin, 1 μM pepstatin at pH 7.4 and frozen at -80° C. until use. Membranes were thawed and homogenized with a Brinkmann Polytron then diluted in tissue buffer containing 20 mM Tris, 2 mM EDTA, 200 μM Pefabloc, and 100 μM bacitracin (pH 7.4). Radioligand and competing ligands were prepared in binding buffer containing 20 mM Tris, 2 mM EDTA, and 0.1% BSA.
(§4) Competing binding assays were initiated by combining membranes, [125I]-ET-1 (40 pM) and the competing ligand in a final volume of 250 μL and incubating for 2 hours at 37° C. The assay was terminated by filtration over Whatman GF/B filters which were presoaked with 50 mM Tris, pH 7.4 containing 0.2% BSA and 100 μM bacitracin. Nonspecific binding was defined as binding in the presence of 100 nM ET-1.

The target of a further assay is T3, recombinant human ETB R (Homo sapiens, UniProt P24530).
T3 construct: expressed in transfected cells; host or cells: CHO-K1 cells
T3 sequence (P24530 27-442): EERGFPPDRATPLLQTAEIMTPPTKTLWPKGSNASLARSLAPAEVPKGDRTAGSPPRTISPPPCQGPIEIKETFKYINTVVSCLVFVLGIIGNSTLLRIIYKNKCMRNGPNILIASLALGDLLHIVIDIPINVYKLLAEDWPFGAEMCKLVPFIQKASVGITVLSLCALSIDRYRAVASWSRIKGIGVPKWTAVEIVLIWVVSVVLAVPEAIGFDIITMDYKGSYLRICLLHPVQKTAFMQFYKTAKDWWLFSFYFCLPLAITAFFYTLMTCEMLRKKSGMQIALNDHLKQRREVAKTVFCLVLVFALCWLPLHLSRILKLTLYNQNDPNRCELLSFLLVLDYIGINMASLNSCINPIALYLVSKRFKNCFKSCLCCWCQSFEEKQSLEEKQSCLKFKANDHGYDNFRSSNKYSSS
Format: binding. The note with it: [125I]-ET-1 40 pM, 2 hours at 37° C.; read-out: HERBAB IC50. How it is done:
as §1, §2, §3, §4

Assay [3] addresses T1, ETA. Briefly: VERA-A: antagonism of ET-1 stimulated vasoconstriction in the rabbit femoral artery. The note with it: rabbit femoral artery rings, antagonist added 30 minutes before ET-1; read-out: VERAA pA2 (converted).
The test system of assay [4] is basilar artery. The note with it: after 7 days, canine two-hemorrhage model of SAH; cited from earlier work.
The next assay deals with subarachnoid hemorrhage. The note with it: rats; cited from earlier work.
The subject of the next assay is acute renal ischemia. The note with it: rats; cited from earlier work.
Assay [5] concerns cerebral vasospasm following SAH. The note with it: rat; cited from earlier work.
The subject of assay [6] is basilar artery. The note with it: rabbits with SAH; cited from earlier work.
The subject of a further assay is congestive heart failure. The note with it: rat, in vivo; cited from earlier work.
The subject of assay [7] is cerebral vasospasm following SAH. The note with it: rabbit; cited from earlier work.
Assay [8] deals with cerebral vasospasm following subarachnoid hemorrhage. The note with it: in vivo; cited from earlier work.
The next assay has as its system allergic sheep. The note with it: cited from earlier work.

For the compound `CCCOc1ccc2c(c1)[C@@H](c1ccc(OC)cc1OCC(=O)O)[C@H](C(=O)O)[C@H]2c1ccc2c(c1)OCO2` [SB 209670], the “effect in ischemia-induced acute renal failure” value in assay [1] is given as “beneficial in ischemia-induced acute renal failure”.

Broadly, the IC50 is the concentration at which inhibition is half-maximal. Take `O=C(O)C1=C(Sc2ccc3c(c2)OCO3)c2ccccc2S(=O)(=O)N1Cc1ccc2c(c1)OCO2` [Example 42, 2-Benzo[1,3]dioxol-5-ylmethyl-4-(benzo[1,3]dioxol-5-ylsulfanyl)-1,1-dioxo-1,2-dihydro-1λ^6-benzo[e][1,2]thiazine-3-carboxylic acid]: the IC50 against ETA [2] amounted to 1200 nM; on recombinant human ETA R, 66 nM; at recombinant human ETB R, 5400 nM. Further, on ETA [3], the Kb was greater than 10000 nM.

For the compound FR 139317, in the assay on basilar artery [4], the “inhibition of vasoconstriction of the basilar artery” value is recorded as “significantly inhibited the vascoconstriction of the basilar artery”.

As for `COc1cccc(Oc2c(NS(=O)(=O)c3ccc(C(C)(C)C)cc3)ncnc2OCCO)c1` [Ro 46-2005], in the assay on subarachnoid hemorrhage, the “effect in model of subarachnoid hemorrhage” value is “effective”. In addition, the “effect in model of acute renal ischemia” value with acute renal ischemia is given as “effective”. In addition, in assay [5], the “prevention of early cerebral vasospasm following SAH” value was “prevent early cerebral vasospasm following SAH”.

Turning to `O=C(O)C1=C(c2ccc3c(c2)OCO3)c2ccccc2S(=O)(=O)N1Cc1cc2c(cc1Cl)OCO2` [Example 31, 4-Benzo[1,3]dioxol-5-yl-2-(6-chloro-benzo[1,3]dioxol-5-ylmethyl)-1,1-dioxo-1,2-dihydro-1λ^6-benzo[e][1,2]thiazine-3-carboxylic acid], the IC50 at ETA [2] was 1300 nM; on recombinant human ETA R, 55 nM; on recombinant human ETB R, 380 nM.

`COc1ccccc1Oc1c(NS(=O)(=O)c2ccc(C(C)(C)C)cc2)nc(-c2ncccn2)nc1OCCO` [Bosentan]: in the assay on basilar artery [6], the “reduction of basilar artery cross-sectional area compared to sham rabbits” value is 36±7%. Besides, in the assay on congestive heart failure, the “treatment of congestive heart failure” value is “useful in the treatment of congestive heart failure”.

As to `CC(C)C[C@@H]1NC(=O)[C@@H](C(C)C)NC(=O)[C@@H]2CCCN2C(=O)[C@@H](CC(=O)O)NC(=O)[C@@H](Cc2c[nH]c3ccccc23)NC1=O` [BQ-123] (cyclo(L[dW][dD]P[dV])), the “prevention of early cerebral vasospasm following SAH” value in assay [7] and in [5] was “prevents early cerebral vasospasm following SAH” throughout. Also, the “prevention of early cerebral vasospasm following subarachnoid hemorrhage” value in assay [8] is recorded as “prevent early cerebral vasospasm following subarachnoid hemorrhage”. Also, the “block of ET-1-induced bronchoconstriction and tracheal smooth muscle contraction” value in the assay with allergic sheep was “block ET-1-induced bronchoconstriction and tracheal smooth muscle contraction”.
